Results as given in BindingDB's records for doi:10.1016/s0960-894x(00)00662-4 (Dupont Pharmaceuticals, 2001).

Assay: Compound was evaluated for its ability to inhibit the NNRTI HIV-1 enzyme by 50% using enzyme assay

SMILES: O=C1Nc2ccc(Cl)cc2[C@@](C#CC2CC2)(C(F)(F)F)N1
- IC50: 31 nM
